# Experimental data from the supplement of paper PMC10307832.
# What was measured:
# Assay in all cases: relative viability (nuclei count vs DMSO), 5 days (fraction); higher = more cells survive
# AZD1208 + Foretinib = compound: N[C@@H]1CCCN(c2c(/C=C3\SC(=O)NC3=O)cccc2-c2ccccc2)C1 [AZD1208] + COc1cc2c(Oc3ccc(NC(=O)C4(C(=O)Nc5ccc(F)cc5)CC4)cc3F)ccnc2cc1OCCCN1CCOCC1 [Foretinib] (partner 0.25 µM)
# Method in brief: (§1)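 Lung cancer cell lines, seeded in 1536-well plates, were treated the following day by pin tool with a single drug or with five library-drug doses (not always all listed) in √10 steps on top of a fixed anchor-drug dose. Cells were fixed and nuclei stained in one step after 5 days, and nuclei were counted. Relative viability is the nuclei count for treated wells divided by that for vehicle wells, reported as medians of duplicate plates.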
# AZD1208 + Crizotinib = compound: N[C@@H]1CCCN(c2c(/C=C3\SC(=O)NC3=O)cccc2-c2ccccc2)C1 [AZD1208] + C[C@@H](Oc1cc(-c2cnn(C3CCNCC3)c2)cnc1N)c1c(Cl)ccc(F)c1Cl [Crizotinib] (partner 1 µM)
# Method in brief: as §1
# XMD14-99 + AZD7762 = compound: CN1CCN(CC1)C2=CC(=C(C=C2)NC3=NC(=C(S3)C(=O)C4=C(C=CC=C4Cl)Cl)N)OC [XMD14-99] + NC(=O)Nc1cc(-c2cccc(F)c2)sc1C(=O)N[C@H]1CCCNC1 [AZD7762] (partner 0.2 µM)
# Method in brief: as §1
# XMD14-99 + Vorinostat = compound: CN1CCN(CC1)C2=CC(=C(C=C2)NC3=NC(=C(S3)C(=O)C4=C(C=CC=C4Cl)Cl)N)OC [XMD14-99] + O=C(CCCCCCC(=O)Nc1ccccc1)NO [Vorinostat] (partner 1 µM)
# Method in brief: as §1
Cell Line,relative viability (AZD1208 + Foretinib; first compound 0.08 µM),relative viability (AZD1208 + Foretinib; first compound 0.253 µM),relative viability (AZD1208 + Foretinib; first compound 0.8 µM),relative viability (AZD1208 + Foretinib; first compound 2.53 µM),relative viability (AZD1208 + Foretinib; first compound 8 µM),relative viability (AZD1208 + Crizotinib; first compound 0.08 µM),relative viability (AZD1208 + Crizotinib; first compound 0.253 µM),relative viability (AZD1208 + Crizotinib; first compound 0.8 µM),relative viability (AZD1208 + Crizotinib; first compound 2.53 µM),relative viability (AZD1208 + Crizotinib; first compound 8 µM),relative viability (XMD14-99 + AZD7762; first compound 0.08 µM),relative viability (XMD14-99 + AZD7762; first compound 0.8 µM),relative viability (XMD14-99 + AZD7762; first compound 2.53 µM),relative viability (XMD14-99 + AZD7762; first compound 8 µM),relative viability (XMD14-99 + Vorinostat; first compound 0.08 µM),relative viability (XMD14-99 + Vorinostat; first compound 0.8 µM),relative viability (XMD14-99 + Vorinostat; first compound 2.53 µM),relative viability (XMD14-99 + Vorinostat; first compound 8 µM)
201T,1.06,1.12,1.07,1.06,1,1,1.08,1.06,1.11,1.14,0.529,0.598,0.583,0.607,0.962,0.93,0.948,0.815
A549,0.808,1.05,0.824,0.927,0.708,0.819,0.847,0.54,0.661,0.541,–,–,–,–,–,–,–,–
A-427,0.924,1.01,0.905,0.865,0.813,0.888,0.974,0.797,0.851,0.767,0.692,0.621,0.496,0.454,0.882,0.832,0.689,0.612
ABC-1,1.16,1.02,1.13,0.92,0.967,1.03,1.23,1.11,1.09,1.11,0.859,1.03,0.865,0.762,1.13,0.996,1.01,0.646
BEN,0.609,0.602,0.47,0.571,0.459,0.729,0.825,0.611,0.639,0.402,0.594,0.736,0.596,0.514,0.591,0.547,0.595,0.522
CAL-12T,1.1,1.28,1.04,1.35,1.38,0.745,0.838,0.718,0.85,0.471,0.65,0.549,0.671,0.573,0.685,0.894,0.627,0.613
COR-L23,0.961,1.05,0.966,0.94,0.97,0.741,0.661,0.699,0.725,0.647,–,–,–,–,0.409,0.415,0.304,0.181
COR-L 105,0.849,1.09,1.05,–,1,0.806,0.766,0.717,0.881,0.68,–,–,–,–,0.833,0.944,0.662,0.663
Calu-6,0.861,0.938,0.946,0.867,0.747,0.615,0.952,0.672,0.711,0.758,–,–,–,–,–,–,–,–
ChaGo-K-1,0.855,0.903,0.808,0.875,0.73,1.1,1.28,0.99,1.16,0.9,0.844,0.901,0.826,0.825,0.741,0.73,0.68,0.719
EBC-1,0.0932,0.0985,0.0803,0.0927,0.103,0.19,0.171,0.174,0.165,0.183,–,–,–,–,–,–,–,–
EKVX,0.798,0.744,0.876,0.858,0.913,0.887,1.29,0.86,1.01,0.88,0.654,0.692,0.651,0.522,0.701,0.714,0.655,0.493
EMC-BAC-2,1.01,1.04,1,1.02,0.727,0.84,0.785,0.74,0.798,0.674,1.15,1.11,1.08,0.835,0.493,0.585,0.447,0.199
EPLC-272H,0.714,0.71,0.618,0.564,0.478,0.93,1,0.792,0.849,0.726,0.165,0.207,0.254,0.433,0.476,0.399,0.401,0.419
H3255,0.919,0.867,0.65,0.954,0.932,0.897,0.854,0.916,0.828,0.774,0.854,0.777,0.75,0.586,0.756,0.74,0.717,0.591
HARA,0.905,0.709,0.827,0.539,0.804,0.938,1.02,1.02,1.02,0.943,0.334,0.261,0.237,0.217,0.537,0.499,0.369,0.397
HCC-44,–,–,–,–,–,0.828,0.905,0.788,0.879,0.82,1.05,1.04,0.993,0.981,1.12,1.1,1.13,1.04
IA-LM,1.07,1.09,0.924,1.14,1.05,0.827,0.724,0.797,0.669,0.748,–,–,–,–,0.96,0.728,0.649,0.515
NCI-H520,0.746,0.754,0.656,0.612,0.396,0.77,0.833,0.711,0.582,0.439,–,–,–,–,0.686,0.635,0.658,0.454

Cell Line,relative viability (AZD1208 + Foretinib; first compound 0.08 µM),relative viability (AZD1208 + Foretinib; first compound 0.253 µM),relative viability (AZD1208 + Foretinib; first compound 0.8 µM),relative viability (AZD1208 + Foretinib; first compound 2.53 µM),relative viability (AZD1208 + Foretinib; first compound 8 µM),relative viability (AZD1208 + Crizotinib; first compound 0.08 µM),relative viability (AZD1208 + Crizotinib; first compound 0.253 µM),relative viability (AZD1208 + Crizotinib; first compound 0.8 µM),relative viability (AZD1208 + Crizotinib; first compound 2.53 µM),relative viability (AZD1208 + Crizotinib; first compound 8 µM),relative viability (XMD14-99 + AZD7762; first compound 0.08 µM),relative viability (XMD14-99 + AZD7762; first compound 0.8 µM),relative viability (XMD14-99 + AZD7762; first compound 2.53 µM),relative viability (XMD14-99 + AZD7762; first compound 8 µM),relative viability (XMD14-99 + Vorinostat; first compound 0.08 µM),relative viability (XMD14-99 + Vorinostat; first compound 0.8 µM),relative viability (XMD14-99 + Vorinostat; first compound 2.53 µM),relative viability (XMD14-99 + Vorinostat; first compound 8 µM)
NCI-H522,–,–,–,–,–,–,–,–,–,–,0.693,1.01,0.806,0.924,0.809,0.889,0.757,0.956
NCI-H661,0.979,1.15,1.04,0.994,0.951,1.02,1,–,1,1.08,–,–,–,–,0.807,0.768,0.627,0.522
NCI-H1299,1.11,1.08,1.08,1.14,1.07,0.958,1,0.933,0.969,0.963,–,–,–,–,–,–,–,–
NCI-H1395,0.988,1,1.01,0.97,0.959,–,–,–,–,–,0.387,0.462,0.363,0.38,0.889,0.891,0.761,0.527
NCI-H1563,1.07,1.02,0.919,0.994,0.908,0.877,0.81,0.928,0.924,0.8,–,–,–,–,–,–,–,–
NCI-H1623,0.838,0.763,0.801,0.837,0.771,–,–,–,–,–,–,–,–,–,–,–,–,–
NCI-H1648,–,–,–,–,–,–,–,–,–,–,0.715,0.625,0.672,0.581,0.397,0.287,0.437,0.395
NCI-H1650,1.08,0.993,1.17,1.05,1.1,0.954,0.972,1.04,0.921,0.71,–,–,–,–,0.554,0.558,0.678,0.427
NCI-H1703,0.268,0.333,0.275,0.301,0.335,0.365,0.53,0.579,0.594,0.461,0.0933,0.124,0.143,0.118,–,–,–,–
NCI-H1792,–,–,–,–,–,1.03,1.08,0.858,0.956,0.907,0.822,0.556,0.599,0.305,–,–,–,–
NCI-H1793,0.578,0.653,0.545,0.749,0.631,–,–,–,–,–,0.512,0.298,0.389,0.298,0.767,0.916,0.627,0.52
NCI-H2009,1.23,1.2,1.14,1.26,1.16,1.07,1.14,0.972,1.06,0.979,–,–,–,–,0.815,0.727,0.63,0.423
NCI-H2023,0.811,0.462,0.795,0.805,0.634,0.618,0.514,0.563,0.6,0.446,–,–,–,–,0.572,0.648,0.732,0.363
NCI-H2228,0.78,0.809,0.635,0.842,0.761,0.327,0.501,0.399,–,0.427,–,–,–,–,0.719,0.683,0.727,0.33
NCI-H2342,0.922,0.946,0.934,1.02,0.801,–,–,–,–,–,0.55,0.502,0.583,0.458,0.747,0.703,0.872,0.989
SK-LU-1,0.794,0.917,0.8,0.721,0.661,0.991,1.16,0.882,0.819,0.674,–,–,–,–,0.735,0.74,0.813,0.479
SK-MES-1,0.84,0.949,0.817,0.769,0.661,1.07,0.944,0.909,0.974,0.78,–,–,–,–,1.08,1.08,1.05,0.657
SW 900,0.817,0.807,0.691,0.947,0.923,–,–,–,–,–,0.633,0.681,0.71,0.548,0.509,0.667,0.489,0.432
SW 1573,0.709,0.872,0.837,0.573,0.653,0.686,0.674,0.686,0.607,0.591,–,–,–,–,0.833,0.765,0.756,0.631
